Calls of active or inactive are those of the source. The rule behind the calls is not given here.

The test system of series [1] is HaCaT. Kind of series: Increase in serine palmitoyltransferase 2 mRNA expression in human HaCaT cells by RT-PCR relative to untreated control. Format: functional.
The subject of series [2] is HaCaT. Kind of series: Increase in serine palmitoyltransferase protein expression in human HaCaT cells at 30 ug/mL by Western blot relative to untreated control. Format: functional.
Series [3] relates to HaCaT. Kind of series: Increase in serine palmitoyltransferase protein expression in human HaCaT cells at 100 ug/mL by Western blot relative to untreated control. Format: functional. Background: In western blotting, separated proteins are transferred to a membrane and probed.
Series [4] concerns HaCaT. Kind of series: Effect on p65 nuclear expression in human HaCaT cells at 100 ug/mL after 12 hrs by Western blot. Format: functional, cell-based.
Series [5] deals with HaCaT. The series is described as follows: Activation of NF-kappaB expressed in human HaCaT cells by luciferase reporter gene assay. It counts as cell-based. For orientation: In a reporter assay the amount or activity of a reporter protein is the signal.
The subject of series [6] is HaCaT. The series is described as follows: Cytotoxicity against human HaCaT cells at 50 to 200 ug/mL by MTT assay. Format: cell-based. In general terms: Tetrazolium assays rely on reduction of a dye to a coloured formazan, in cell work by metabolically active cells.
The subject of series [7] is HaCaT. Kind of series: Increase in serine palmitoyltransferase 1 mRNA expression in human HaCaT cells by RT-PCR relative to untreated control. Format: functional.

In the case of `O=C(/C=C/c1ccc(O)c2c1[C@H](C(=O)O)[C@@H](c1ccc(O)c(O)c1)O2)O[C@H](Cc1ccc(O)c(O)c1)C(=O)O` [LITHOSPERMIC ACID], the Activity in series [1] is 151%; in series [2], 21.7%; in series [3], 55%; in series [6] it was “Non-toxic”; in series [7], 121%. In addition, the outcome in series [4] and in series [5] was inactive.

As for `COC(=O)[C@@H](Cc1ccc(O)c(O)c1)OC(=O)/C=C/c1ccc(O)c2c1[C@H](C(=O)O)[C@@H](c1ccc(O)c(O)c1)O2`, the Activity in series [1] is reported as 159%; in series [2] it was 20.2%; in series [3], 81%; in series [6], “Non-toxic”; in series [7], 148%. In addition, the outcome in series [4] and in series [5] was inactive.

For the molecule `COC(=O)[C@H]1c2c(/C=C/C(=O)O[C@H](Cc3ccc(O)c(O)c3)C(=O)O)ccc(O)c2O[C@@H]1c1ccc(O)c(O)c1`, the Activity is recorded as 139% in series [1]; 8.9% in series [2]; 23% in series [3]; “Non-toxic” in series [6]; 139% in series [7]. The outcome in series [4] and in series [5] was inactive.

For `NC(=O)c1cccnc1` [NIACINAMIDE], the Activity in series [1] is listed as 128%; in series [3] it was 57.3%; in series [7], 127%.
